Experimental data as given in patent publication US9095653B2, “Method for the timed dosage of medicaments” (BAYER INTELLECTUAL PROPERTY GMBH, priority 2004, dated 2015).
Converted amounts (≈) assume the structure as drawn. Read-outs that look alike come from different tables or passages of the source.

Tests used:
[1] = cited from earlier work
[2] = Solubility, substance input parameter; format: physicochemical; conditions: input parameter for PK-Sim
[3] = Plasma clearance adapted in PK-Sim simulation to experimental literature concentration-time profiles; format: in vivo, humans; conditions: human, read-out: plasma clearance CL
Procedure: Drug Dispos. 20, 417-419 (1999)) and a muscle concentration-time profile from the literature (M. Müller, B. v. Osten, R. Schmid, E. Piegler, I. Gerngross, H. Buchegger, H. G. Eichler: “Theophylline kinetics in peripheral tissues in vivo in humans”, Naunyn-Schmiedeberg's Arch. Pharmacol. 352, 438-441 (1995)) (FIG. 2).
The plasma clearance here is CL=0.40 ml/min/kg. (source: [12]) • b) Intravenous infusion of 240 mg over 10 minutes. […] (source: [13]) • c) Peroral administration of 200 mg of an immediately releasing formulation (mean and standard deviation of three bioequivalent immediate release capsules).

[4] = average value for an adult human; cited from earlier work
[5] = Lipophilicity (LogMA), substance input parameter for PK-Sim; format: physicochemical

Cn1c(=O)c2[nH]cnc2n(C)c1=O [Theophylline]
plasma concentration below which a sufficient anti-asthmatic effect is not generally achieved [1]: below 5 mg/l
solubility [2]: 2800 µg/mL (≈ 15.5 mM)
clearance ([3]; intravenous infusion of 5.58 mg/kg over 20 minutes, adapted to experimental data (FIG. 2a)): 0.4 mL/min/kg
clearance ([3]; intravenous infusion of 240 mg over 10 minutes, adapted to experimental data (FIG. 2b)): 0.25 mL/min/kg
clearance ([3]; oral, peroral administration of 200 mg immediately releasing formulation, adapted to experimental data (FIG. 2c)): 0.5 mL/min/kg
Free plasma fraction [4]: 59%
Lipophilicity (LogMA) [5]: −0.2
